Key:
[1] = test system: human SMN2 transgene exon 7 C840T (C6T) in SMA mESCs; test: Adenine base editing of SMN2 C840T (C6T) after transfection of SMA mESCs; assay type: cell-based, mouse; details: ABE8 fusions, FIG. 4
[2] = test system: DNA; details: SpCas9 mutation relative to SEQ ID NO: 5; UniProtKB Q99ZW2 entry; cited from earlier work

Row | Molecule | editing of C840T [1] | decreased DNA cleavage [2]
1 | iSpyMac: iSpyMac-variant ABE8e adenine base editor; SEQ ID NO: 476 | edited C840T with high efficiency | –
2 | 175-307 deletion: SpCas9 mutation relative to SEQ ID NO: 5 (protein, Streptococcus pyogenes) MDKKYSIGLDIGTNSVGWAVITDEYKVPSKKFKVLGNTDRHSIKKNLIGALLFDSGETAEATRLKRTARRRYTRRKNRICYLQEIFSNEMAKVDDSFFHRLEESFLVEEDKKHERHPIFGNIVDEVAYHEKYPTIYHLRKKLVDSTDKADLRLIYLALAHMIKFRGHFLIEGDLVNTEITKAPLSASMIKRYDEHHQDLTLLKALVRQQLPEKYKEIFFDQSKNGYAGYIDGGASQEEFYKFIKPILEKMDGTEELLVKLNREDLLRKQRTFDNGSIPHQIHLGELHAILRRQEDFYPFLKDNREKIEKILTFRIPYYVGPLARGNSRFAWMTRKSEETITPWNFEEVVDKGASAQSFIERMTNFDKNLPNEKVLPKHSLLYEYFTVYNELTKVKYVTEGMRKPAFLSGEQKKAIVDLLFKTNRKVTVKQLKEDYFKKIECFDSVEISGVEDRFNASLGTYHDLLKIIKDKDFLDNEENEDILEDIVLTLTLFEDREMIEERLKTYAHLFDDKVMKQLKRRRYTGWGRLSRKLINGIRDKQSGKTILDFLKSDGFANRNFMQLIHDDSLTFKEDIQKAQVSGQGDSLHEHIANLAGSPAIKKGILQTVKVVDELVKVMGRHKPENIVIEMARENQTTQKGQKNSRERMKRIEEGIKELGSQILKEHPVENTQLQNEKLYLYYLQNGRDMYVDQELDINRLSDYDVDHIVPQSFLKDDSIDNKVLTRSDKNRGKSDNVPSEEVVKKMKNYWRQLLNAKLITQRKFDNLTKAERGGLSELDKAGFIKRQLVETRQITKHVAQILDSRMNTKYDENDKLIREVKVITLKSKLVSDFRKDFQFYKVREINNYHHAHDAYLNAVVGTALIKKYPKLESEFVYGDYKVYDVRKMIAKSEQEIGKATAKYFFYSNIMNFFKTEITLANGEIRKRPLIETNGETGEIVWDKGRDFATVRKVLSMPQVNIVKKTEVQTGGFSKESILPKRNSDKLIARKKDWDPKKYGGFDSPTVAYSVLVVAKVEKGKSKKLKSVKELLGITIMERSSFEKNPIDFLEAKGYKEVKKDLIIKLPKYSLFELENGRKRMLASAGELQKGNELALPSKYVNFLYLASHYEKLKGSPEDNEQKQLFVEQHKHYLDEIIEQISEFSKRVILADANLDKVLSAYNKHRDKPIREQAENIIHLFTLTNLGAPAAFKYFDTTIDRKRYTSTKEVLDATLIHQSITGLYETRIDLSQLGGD | – | About 50% decreased DNA cleavage

Reference: patent US20230108687A1, “GENE EDITING METHODS FOR TREATING SPINAL MUSCULAR ATROPHY” (The Broad Institute, Inc., priority 2020, published 2023)
